Source: patent US20260049072A1, “HETEROCYCLIC COMPOUND FOR INDUCING DEGRADATION OF MUTANT KRAS PROTEIN” (Astellas Pharma Inc., priority 2022, published 2026)
Where two headings read alike, the source gives them in different places.

Test system: PA-TU-8902 cells
Experiment: Non-anchorage-dependent cell growth inhibition (spheroid 3D culture), PA-TU-8902
Assay type: cell-based, human
Conditions: KRAS G12V mutant-positive, 3D spheroid, six days, CellTiter-Glo 2.0, read-out: PA-TU-8902 IC50
Protocol: Test Example 3: Evaluation of Non-Anchorage-Dependent Cell Growth Inhibitory Activity on Human KRAS G12V Mutant-Positive Pancreatic Cancer Line PA-TU-8902, Human KRAS G12D Mutant-Positive Pancreatic Cancer Line AsPC-1 or Human KRAS G12C Mutant-Positive Pancreatic Cancer Line MIA PaCa-2
The non-anchorage-dependent cell growth inhibitory activities of subject compounds were evaluated by spheroid 3D cell culture.
PA-TU-8902 cells, AsPC-1 cells or MIA PaCa-2 cells (RIKEN BRC, RCB2094) were seeded at 36 µL/well on a low-cell-adhesive round bottom 384-well plate (Prime Surface: from Sumitomo Bakelite) to give 5×10^2 cells per well. The PA-TU-8902 cells were under the same conditions as in Test Example 1-1, and the AsPC-1 cells were under the same conditions as in Test Example 1-2. For the MIA PaCa-2 cells, RPMI-1640 medium containing 10% fetal bovine serum was used in the presence of 5% CO2 at 37° C.
The next day, the subject compounds (6-9 points having final concentrations in the range of 3 μM to 0.3 nM) and DMSO, which was the solvent for the subject compounds, as a negative control were diluted 100-fold with a fresh medium and were each added at 4 μL per well. After culturing in the presence of 5% CO2 at 37° C. for six days, CellTiter-Glo 2.0 (from Promega) was added at 20 μL per well. After stirring with a plate mixer (from FINEPCR) at normal temperature for an hour, the luminescent signals were measured with ARVO X3 (from PerkinElmer).
With the signaling value in treatment with DMSO taken as 0% inhibition and with the signaling value in the medium alone without cells taken as 100% inhibition, the 50% inhibition values (IC50) were calculated by Sigmoid-Emax model nonlinear regression analysis.

Row | SMILES | IC50 (Homo sapiens, PaTu 8902, 144 h) [nM] | IC50 [nM]
1 | Cc1ncsc1-c1ccc([C@H](CO)NC(=O)[C@@H]2C[C@@H](O)CN2C(=O)[C@H](C(C)C)n2cc(-c3ccc(COc4c(-c5c(C)c(F)cc6[nH]ncc56)c(C5CC5)cc5c(OC6CN(C(=O)NCCN(C)C)C6)nc(OC6CCN(CC(F)F)CC6)nc45)cc3)nn2)cc1 (atropisomer, axis not shown) [Example 31] | 67 | 
2 | Cc1ncsc1-c1ccc([C@H](CO)NC(=O)[C@@H]2C[C@@H](O)CN2C(=O)[C@H](C(C)C)n2cc(-c3ccc(COc4c(-c5c(C)c(F)cc6[nH]ncc56)c(C5CC5)cc5c(N6CC(C#N)C6)nc(OC[C@@H]6CCN(C)C6)nc45)cc3)nn2)cc1 [Example 38] | 177 | 
3 | Cc1ncsc1-c1ccc([C@H](CO)NC(=O)[C@@H]2C[C@@H](O)CN2C(=O)[C@H](C(C)C)n2cc(-c3ccc(COc4c(-c5c(C)c(F)cc6[nH]ncc56)c(C5CC5)cc5c(N(C)C6CN(C(=O)O[C@H]7CCN(C)C7)C6)nc(OC6CCOCC6)nc45)cc3)nn2)cc1 (atropisomer, axis not shown) [Example 33] | 103 | 
4 | CO[C@@H](C)COc1nc(NC2CN(C(=O)N3CCN(C)CC3)C2)c2cc(C3CC3)c(-c3c(C)c(F)cc4[nH]ncc34)c(OCc3ccc(-c4cn([C@H](C(=O)N5C[C@H](O)C[C@H]5C(=O)N[C@@H](CO)c5ccc(-n6cncn6)cc5)C(C)C)nn4)cc3)c2n1 (atropisomer, axis not shown) [Example 27] | 122 | 
5 | CO[C@@H](C)COc1nc(OC2CN(C(=O)NCCN3CCCC3)C2)c2cc(C3CC3)c(-c3c(C)c(F)cc4[nH]ncc34)c(OCc3ccc(-c4cn([C@H](C(=O)N5C[C@H](O)C[C@H]5C(=O)N[C@@H](CO)c5ccc(-c6scnc6C)cc5)C(C)C)nn4)cc3)c2n1 (atropisomer, axis not shown) [Example 22] | 65 | 
6 | CO[C@@H](C)COc1nc(N2CC[C@H]2C(N)=O)c2cc(C3CC3)c(-c3c(C)c(F)cc4[nH]ncc34)c(OCc3ccc(-c4cn([C@H](C(=O)N5C[C@H](O)C[C@H]5C(=O)N[C@@H](CN(C)C)c5ccc(-c6scnc6C)cc5)C(C)C)nn4)cc3)c2n1 (atropisomer, axis not shown) [Example 37] | 78 | 
7 | CO[C@@H](C)COc1cc(OC2CN(C(=O)N3CC(CN(C)C)C3)C2)c2cc(C3CC3)c(-c3c(C)c(F)cc4[nH]ncc34)c(OCc3ccc(-c4cn([C@H](C(=O)N5C[C@H](O)C[C@H]5C(=O)N[C@@H](CO)c5ccc(N6CCOC6=O)cc5)C(C)C)nn4)cc3)c2n1 (atropisomer, axis not shown) [Example 8] | 102 | 
8 | CO[C@@H](C)COc1nc(NC2CN(C(=O)O[C@H]3C[C@@H](N(C)C)C3)C2)c2cc(C3CC3)c(-c3c(C)c(F)cc4[nH]ncc34)c(OCc3ccc(-c4cn([C@H](C(=O)N5C[C@H](O)C[C@H]5C(=O)N[C@@H](CO)c5ccc(-c6scnc6C)nc5)C(C)C)nn4)cc3)c2n1 (atropisomer, axis not shown) [Example 3] | 160 | 
9 | CC[C@H](C)[C@@H](C(=O)N1C[C@H](O)C[C@H]1C(=O)N[C@@H](CO)c1ccc(-c2scnc2C)cc1)n1cc(-c2ccc(COc3c(-c4c(C)c(F)cc5[nH]ncc45)c(C4CC4)cc4c(O[C@H]5CCN(C(=O)NCCN(C)C)C5)nc(OC[C@H](C)OC)nc34)cc2)nn1 (single isomer, unassigned) [Example 28] | 159 | 
10 | CO[C@@H](C)COc1cc(OC2CN(C(=O)N3CC[C@@H](N(C)C)C3)C2)c2cc(C3CC3)c(-c3c(C)c(F)cc4[nH]ncc34)c(OCc3ccc(-c4cn([C@H](C(=O)N5C[C@H](O)C[C@H]5C(=O)N[C@@H](CO)c5ccc(-n6cncn6)cc5)C(C)C)nn4)cc3)c2n1 (atropisomer, axis not shown) [Example 7] | 81 | 
11 | Cc1c(F)cc2[nH]ncc2c1-c1c(C2CC2)cc2c(NC3CN(C(=O)NCCN(C)C)C3)nc(OC[C@@H]3CCCO3)nc2c1OCc1ccc(-c2cn([C@H](C(=O)N3C[C@H](O)C[C@H]3C(=O)N[C@@H](CO)c3ccc(-n4cncn4)cc3)C(C)C)nn2)cc1 (atropisomer, axis not shown) [Example 32] | 105 | 
12 | Cc1c(F)cc2[nH]ncc2c1-c1c(C2CC2)cc2c(OC3CN(C(=O)NCCN(C)C)C3)nc(OC3CCOCC3)nc2c1OCc1ccc(-c2cn([C@H](C(=O)N3C[C@H](O)C[C@H]3C(=O)N[C@@H](CO)c3ccc(-n4cccn4)cc3)C(C)C)nn2)cc1 [Example 30] | 235 | 
13 | CO[C@@H](C)COc1nc(N(C)C2CN(C(=O)CCCN(C)C)C2)c2cc(C3CC3)c(-c3c(C)c(F)cc4[nH]ncc34)c(OCc3ccc(-c4cn([C@H](C(=O)N5C[C@H](O)C[C@H]5C(=O)N[C@@H](CO)c5ccc(-c6scnc6C)cc5)C(C)C)nn4)cc3)c2n1 (atropisomer, axis not shown) [Example 24] | 125 | 
14 | CO[C@@H](C)COc1cc(OC2CN(C(=O)NCCN(C)C)C2)c2cc(C3CC3)c(-c3c(C)c(F)cc4[nH]ncc34)c(OCc3ccc(-c4cn([C@H](C(=O)N5C[C@H](O)C[C@H]5C(=O)N[C@@H](CO)c5ccc(-c6scnc6C)cc5)C(C)C)nn4)cc3)c2n1 [Example 43, (4R)-1-[(2S)-2-(4-{4-[({(7M)-6-cyclopropyl-4-[(1-{[2-(dimethylamino)ethyl]carbamoyl}azetidin-3-yl)oxy]-7-(6-fluoro-5-methyl-1H-indazol-4-yl)-2-[(2S)-2-methoxypropoxy]quinolin-8-yl}oxy)methyl]phenyl}-1H-1,2,3-triazol-1-yl)-3-methylbutanoyl]-4-hydroxy-N-{(1R)-2-hydroxy-1-[4-(4-methyl-1,3-thiazol-5-yl)phenyl]ethyl}-L-prolinamide] |  | 61
15 | CO[C@@H](C)COc1nc(NC2CN(C(=O)OCCN(C)C)C2)c2cc(C3CC3)c(-c3c(C)c(F)cc4[nH]ncc34)c(OCc3ccc(-c4cn([C@H](C(=O)N5C[C@H](O)C[C@H]5C(=O)N[C@@H](CO)c5ccc(-c6scnc6C)cc5)C(C)C)nn4)cc3)c2n1 (atropisomer, axis not shown; (M)) [Example 34, 2-(dimethylamino)ethyl 3-({(7M)-6-cyclopropyl-7-(6-fluoro-5-methyl-H-indazol-4-yl)-8-{[4-(1-{(2S)-1-[(2S,4R)-4-hydroxy-2-({(1R)-2-hydroxy-1-[4-(4-methyl-1,3-thiazol-5-yl)phenyl]ethyl}carbamoyl)pyrrolidin-1-yl]-3-methyl-1-oxobutan-2-yl}-1H-1,2,3-triazol-4-yl)phenyl]methoxy}-2-[(2S)-2-methoxypropoxy]quinazolin-4-yl}amino)azetidine-1-carboxylate] | 109 | 
16 | COC(C)(C)COc1cc(OC2CN(C(=O)N[C@H]3C[C@@H](N(C)C)C3)C2)c2cc(C3CC3)c(-c3c(C)c(F)cc4[nH]ncc34)c(OCc3ccc(-c4cn([C@H](C(=O)N5C[C@H](O)C[C@H]5C(=O)N[C@@H](CO)c5ccc(-n6cncn6)cc5)C(C)C)nn4)cc3)c2n1 (atropisomer, axis not shown) [Example 10] | 69 | 
17 | Cc1ncsc1-c1ccc([C@H](CCO)NC(=O)[C@@H]2C[C@@H](O)CN2C(=O)[C@H](C(C)C)n2cc(-c3ccc(COc4c(-c5c(C)c(F)cc6[nH]ncc56)c(C5CC5)cc5c(NC6CN(C(=O)NCCN(C)C)C6)nc(OC6CCOCC6)nc45)cc3)nn2)cc1 [Example 39, (4R)-1-[(2S)-2-(4-{4-[({(7M)-6-cyclopropyl-4-[(1-{[2-(dimethylamino)ethyl]carbamoyl}azetidin-3-yl)oxy]-7-(6-fluoro-5-methyl-1H-indazol-4-yl)-2-[(oxan-4-yl)oxy]quinazolin-8-yl}oxy)methyl]phenyl}-1H-1,2,3-triazol-1-yl)-3-methylbutanoyl]-4-hydroxy-N-{(1S)-3-hydroxy-1-[4-(4-methyl-1,3-thiazol-5-yl)phenyl]propyl}-L-prolinamide] | 52 | 
18 | Cc1ncsc1-c1ccc([C@H](CO)NC(=O)[C@@H]2C[C@@H](O)CN2C(=O)[C@H](C(C)C)n2cc(-c3ccc(COc4c(-c5c(C)c(F)cc6[nH]ncc56)c(C5CC5)cc5c(OC6CN(C(=O)NCCO)C6)nc(OC6CCOCC6)nc45)cc3)nn2)cc1 [Example 16] | 261 | 
19 | Cc1ncsc1-c1ccc([C@H](CO)NC(=O)[C@@H]2C[C@@H](O)CN2C(=O)[C@H](C(C)C)n2cc(-c3ccc(COc4c(-c5c(C)c(F)cc6[nH]ncc56)c(C5CC5)cc5c(OC6CN(C(=O)NCCN(C)C)C6)nc(OCC(C)(C)CN(C)C)nc45)cc3)nn2)cc1 [Example 36] | 143 | 
